Measured values taken from patent publication US20100029732A1, “Combinations of Beta-2-Adrenoceptor Agonistic Benzothiazolone” (ASTRAZENECA AB, priority 2007, published 2010).
Structures can show the parent of a compound that is named as a salt.

Experiments:
Adrenergic β2 = target: T1, Adrenergic β2 (Homo sapiens, UniProt P07550); test: Adrenergic β2 mediated cAMP production in H292 cells (AlphaScreen); type: cell-based
T1 construct: Adherent H292 cells were removed from tissue culture flasks; endogenous in cells; host or cells: H292 cells
T1 sequence (P07550 whole entry): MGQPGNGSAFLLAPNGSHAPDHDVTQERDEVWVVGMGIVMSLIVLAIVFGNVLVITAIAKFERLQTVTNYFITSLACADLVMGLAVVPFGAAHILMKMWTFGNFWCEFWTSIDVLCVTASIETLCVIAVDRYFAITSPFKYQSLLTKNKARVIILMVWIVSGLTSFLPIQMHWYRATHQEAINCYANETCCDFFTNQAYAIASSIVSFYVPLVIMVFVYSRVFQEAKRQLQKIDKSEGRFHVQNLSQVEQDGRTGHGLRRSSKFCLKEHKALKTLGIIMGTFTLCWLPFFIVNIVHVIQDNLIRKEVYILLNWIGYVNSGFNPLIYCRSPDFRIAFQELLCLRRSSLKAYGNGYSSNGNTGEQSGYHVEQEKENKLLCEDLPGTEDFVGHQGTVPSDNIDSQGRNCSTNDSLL
Experimental: Adrenergic β2 Mediated cAMP Production
H292 cells were grown in 225 cm2 flasks incubator at 37° C., 5% CO2 in RPMI medium containing, 10% (v/v) FBS (foetal bovine serum) and 2 mM L-glutamine.
Adherent H292 cells were removed from tissue culture flasks by treatment with Accutase™ cell detachment solution for 15 minutes. Flasks were incubated for 15 minutes in a humidified incubator at 37° C., 5% CO2. Detached cells were re-suspended in RPMI media (containing 10% (v/v) FBS and […] L-glutamine) at 0.05×10^6 cells per 1 mL. 5000 cells in 100 μL were added to each well of a tissue-culture-treated 96-well plate and the cells incubated overnight in a humidified incubator at 37° C., 5% CO2. The culture media was removed and cells were washed twice with 100 μL assay buffer and replaced with 50 μL assay buffer (HBSS solution containing 10 mM HEPES pH7.4 and 5 mM glucose). […]
The concentration of cAMP (cyclic adenosine monophosphate) in the cell lysate was determined using AlphaScreen™ methodology. […] The AlphaScreen™ signal was measured using an EnVision spectrophotometer (Perkin-Elmer Inc.) with the recommended manufacturer's settings. cAMP concentrations were determined by reference to a calibration curve determined in the same experiment using standard cAMP concentrations. […] Intrinsic Activity was expressed as a fraction relative to the maximum activity determined for formoterol in each experiment. […]

[1] = tested on: guinea pig trachea contracted with methacholine; test: Bronchodilator activity in guinea pig isolated tracheal ring preparation: onset measurements; conditions: rings contracted with methacholine 1 μM, mean±s.e.mean, n=4
Experimental: Guinea pigs (300-500 g) were killed by cervical dislocation and the trachea was isolated. The trachea was cut into segments 2-3 cartilage rings in width and suspended in 10 ml organ baths in modified Krebs' solution (mM; NaCl, 90; NaHCO3, 45; KCl, 5; MgSO4.7H2O, 0.5; Na2HPO4.2H2O, 1; CaCl2, 2.25; glucose, 10; pH 7.4) gassed with 5% CO2, 95% O2 at 37° C.). The tracheal rings were attached to an isometric force transducer for the measurement of isometric tension. The tissues were washed and a force of 1 g was applied to each tissue. The rings were contracted with methacholine (1 μM). Once the contraction had reached a plateau, vehicle (0.01% DMSO in distilled H2O), compound A (3 nM), roflumilast (1 μM) or a combination of compound A (3 nM) and roflumilast (1 μM) was added and the tissue left until the response had reached a plateau. Data were collected using the Chart 4 software (ADInstruments, Charlgrove, UK). The time to 90% of the maximum effect of the bronchodilator (onset time) was measured and expressed in min (mean±s.e.mean).

[2] = tested on: LPS-induced intra-alveolar neutrophilia; test: Intra-alveolar neutrophil migration after intratracheal LPS challenge in the CRL:CD rat; type: in vivo; conditions: Compound W 3 ng/kg intratracheal 30 min prior to LPS 10 μg/kg; BAL 4 hr; mean±s.e.mean
Experimental: LPS challenge in CRL:CD rats causes an influx of neutrophils into the lungs. Under recoverable gaseous anaesthesia (5% isoflourane in oxygen), rats were dosed via the intatracheal route with vehicle (0.05M phosphate, 0.1% Tween 80, 0.6% saline, pH 6), or compound 30 min before challenge with an intratracheal dose of 10 μg/kg LPS.
The rats (250-400 g) were euthanized 4 hr after LPS challenge with 1 mL pentobarbitone sodium. A tracheotomy was performed and a calinula inserted. The airway was then lavaged using 3 mL Isoton at room temperature. The Isoton (BeckmanCoulter, High Wycombe, UK) was left in the airway for 10 seconds before being removed. The bronchio-alveolar lavage (BAL) fluid containing inflammatory cells was placed into a 15 mL centrifuge tube and kept on ice. This process was repeated three times. An aliquot of BAL fluid was removed and the inflammatory cells were counted on Sysmex (Sysmex UK, Milton Keynes). Neutrophils were expressed in millions/animal (mean±s.e.mean).

[3] = tested on: methacholine-induced bronchoconstriction; test: Lung function in anaesthetised guinea-pigs, methacholine challenge; type: in vivo, Dunkin-Hartley guinea pig; conditions: tiotropium bromide 0.03 μg/kg intratracheal 2 hours prior; after 5 μg/kg i.v. methacholine
Experimental: Male Dunkin-Hartley guinea pigs (300-600 g) were weighed and dosed with vehicle (0.05M phosphate, 0.1% Tween 80, 0.6% saline, pH 6) or compound via the intratracheal route under recoverable gaseous anaesthesia (5% halothane in oxygen). Animals were dosed with compound or vehicle two hours prior to the administration of histamine or methacholine.
Guinea pigs were anaesthetised with pentobarbitone (1 mL/kg of 60 mg/mL solution i.p.) approximately 30 minutes prior to the first bronchoconstrictor administration. The trachea was cannulated and the animal ventilated using a constant volume respiratory pump (Harvard Rodent Ventilator model 683) at a rate of 60 breath/min and a tidal volume of 5 ml/lkg. […]
The animals were transferred to a Flexivent System (SCIREQ, Montreal, Canada) in order to measure airway resistance. […] Respiratory resistance was measured using the Flexivent “snapshot” facility (1 second duration, 1 Hz frequency). […] After each administration of bronchoconstrictor the peak resistance value was recorded. […] Percentage bronchoprotection produced by a compound was calculated at each dose of brochoconstrictor as follows:
Where % change Rveh is the mean of the maximum percentage change in airway resistance in the vehicle treated group. The results reported were measured after 5 μg/kg histamine or methacholine and were expressed as percentage bronchoprotection (mean±s.e.mean).

CCN(CC)CCN(CCNCCc1ccc(O)c2[nH]c(=O)sc12)C(=O)CCOCCc1cccc2ccccc12 [Compound A, N-[2-(Diethylamino)ethyl]-N-(2-{[2-(4-hydroxy-2-oxo-2,3-dihydro-1,3-benzothiazol-7-yl)ethyl]amino}ethyl)-3-[2-(1-naphthyl)ethoxy]propanamide dihydrobromide]
β2 Int Act (Adrenergic β2; Intrinsic Activity as fraction relative to the maximum activity of formoterol): 0.8 | onset time (time to 90% of the maximum effect of the bronchodilator) ([1]; compound A 3 nM): 16 ± 3.0 min

CNC(=O)c1cc(Cl)c(OC(C)(C)C(=O)O)cc1OC[C@@H](O)CN1CCC2(CC1)Cc1cc(Cl)ccc1O2 [Compound W, 2-{2-Chloro-5-{[(2S)-3-(5-chloro-1′H,3H-spiro[1-benzofuran-2,4′-piperidin]-1′-yl)-2-hydroxypropyl]oxy}-4-[(methylamino)carbonyl]phenoxy}-2-methylpropanoic acid]
BAL neutrophils [2]: 6.3±1.1 million/animal

CCN(CC)CCN(CCNCCc1ccc(O)c2[nH]c(=O)sc12)C(=O)CCOCCc1cccc2ccccc12 [N-[2-(Diethylamino)ethyl]-N-(2-{[2-(4-hydroxy-2-oxo-2,3-dihydro-1,3-benzothiazol-7-yl)ethyl]amino}ethyl)-3-[2-(1-naphthyl)ethoxy]propanamide]
selectivity of β2 adrenoceptor agonism (Adrenergic β2; over adrenergic α1D, adrenergic β1 and dopamine D2 activities): ≥ 10 fold

O=C(Nc1c(Cl)cncc1Cl)c1ccc(OC(F)F)c(OCC2CC2)c1 [roflumilast, 3-(cyclopropylmethoxy)-N-(3,5-dichloro-4-pyridinyl)-4-(difluoromethoxy)benzamide, reference compound]
onset time (time to 90% of the maximum effect of the bronchodilator) ([1]; roflumilast 1 μM): 26 ± 1.4 min

C[N+]1(C)[C@@H]2C[C@@H](OC(=O)C(O)(c3cccs3)c3cccs3)C[C@H]1[C@@H]1O[C@@H]12 [tiotropium bromide, Tiotropium bromide]
inhibition of methacholine-induced bronchoconstriction [3]: 13%
